Patent US10251860B2, “Compounds for bone healing” (University of Pittsburgh—Of the Commonwealth System of …, priority 2015, dated 2019)

How the values were obtained:
[1] = test system: breast cancer cell line (MDA-MB-231); type: cell-based
Description: (§1) The cellular toxicity of sulfoxide 3 was further determined for a breast cancer cell line (MDA-MB-231) and a liver cell line (HepG2).

liver cell line (HepG2) = type: cell-based
Description: as §1

[2] = test system: bone marrow stromal cell line derived from C57BL/6NTac mice; test: In vitro clonogenic radiation survival curves; type: cell-based, mouse; settings: 0 to 8 Gy
Protocol: FIG. 12A is a graph of surviving fraction versus radiation dose, illustrating the in vitro radioprotection and mitigation of bone marrow stromal cells. In vitro survival curves were performed using a bone marrow stromal cell line derived from C57BL/6NTac mice. Cells were incubated in 100 μM MMS350 for one hour before irradiation or was added to the cells 10 min after irradiation. Cells were irradiated to doses ranging from 0 to 8 Gy, plated in 4 well tissue culture plates, incubated for 7 days at 37° C. in a humidified CO2 incubator, and stained with crystal violet. Colonies of greater than 50 cells were counted and analyzed using a linear quadratic model or single-hit, multi-target model.
The murine C57BL/6 bone marrow stromal cell line (Epperly M W, Sikora C A, Defilippi S, Gretton J E, Greenberger J S. Bone marrow origin of myofibroblasts in irradiation pulmonary fibrosis. Am J Resp Molecular Cell Biology 2003; 29:213-224) and its use in clonogenic radiation survival curves has been described (Epperly M W, Gretton J E, Bernarding M, Nie S, Rasul B, Greenberger J S. Mitochondrial localization of copper/zinc superoxide dismutase (Cu/ZnSOD) confers radioprotective functions in vitro and in vivo. Radiation Research 2003; 160:568-578).
Cell lines were irradiated at dose rate of 70 cGy per minute using a Cesium Gamma Cell Irradiator according to published methods. […]

32D cl 3 cells = test: Irradiated 32D cl 3 cells, cell count and viability; type: cell-based, murine; settings: 10 μM, 0-7 Gy, day 3 or 5 after irradiation
Protocol: FIGS. 10A-10D provide data from a screening experiment where 32D cl 3 cells were irradiated to doses of 0, 1, 3, 5, or 7 Gy and placed in T25 flasks. Either JP4-039 or MM350 were added at 10 μM and incubated in a CO2 incubator at 37° C. At Day 3 or 5 after irradiation, the cells were counted and the viability determined.

mice = test: Dose escalation experiments in mice; type: in vivo, mouse
Description: In particular, certain embodiments of the oxetane-substituted compounds (e.g., MMS350) are radiation protector/mitigators that are water soluble, and easily administered (e.g., orally administered to a subject). […] Furthermore, MnSOD-PL is relatively ineffective when delivered weeks-months after irradiation, at the time that fibrosis is forming, and appears to be only effective when delivered prior to irradiation. In contrast, MMS350 as shown in the data reported herein, has high effectiveness when delivered months after irradiation and at the time of initiation of radiation fibrosis in the lung.

Q: Which GI50 [1] does the source give for `CC1(C[S+]([O-])CC2(C)COC2)COC1` [Compound 3, 3,3′-Sulfinylbis(methylene)bis(3-methyloxetane)] here?
A: The GI50 was about 200 mM.

Q: And the GI50 (liver cell line (HepG2))?
A: The GI50 was about 200 mM.

Q: What about the D0 ([2]; 100 μM MMS350 added 10 min after irradiation, control 1.9±0.1, p=0.0444) of the same molecule?
A: Its D0 is 2.4±0.3.

Q: And the “shoulder on the survival curve (ñ)” value ([2]; 100 μM MMS350 for one hour before irradiation, control 5.8±1.1, p=0.0039)?
A: The value was 14.9±2.9.

Q: What about the “number of cells and viability” value (32D cl 3 cells) of the same molecule?
A: The value was “comparable to JP4-039”.

Q: And the toxic dose (mice)?
A: The toxic dose was “a toxic dose has not yet been reached”.
